Source: US6737383B1, “Herbicidal oxadiazolidines” (priority 1999, dated 2004)

Columns and labels:
wild oat = experiment: Test B pre/postemergence wild oat; format: in vivo, Avena fatua
Procedure, shortened: (§1)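 Test chemicals in a non-phytotoxic solvent mixture with surfactant were sprayed preemergence onto planted seeds and postemergence onto plants 2 to 18 cm tall (1- to 4-leaf stage). After twelve to sixteen days in a greenhouse, injury was visually rated against untreated controls from 0 (no effect) to 10 (complete control).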

velvetleaf = experiment: Test B pre/postemergence velvetleaf; format: in vivo, Abutilon theophrasti
Procedure, shortened: as §1

bedstraw = experiment: Test B pre/postemergence bedstraw; format: in vivo, Galium aparine
Procedure, shortened: as §1

crabgrass = experiment: Test B pre/postemergence crabgrass; format: in vivo, Digitaria sanguinalis
Procedure, shortened: as §1

rape = experiment: Test B pre/postemergence rape; format: in vivo, Brassica napus
Procedure, shortened: as §1

giant foxtail = experiment: Test B pre/postemergence giant foxtail; format: in vivo, Setaria faberii
Procedure, shortened: as §1

cocklebur = experiment: Test B pre/postemergence cocklebur; format: in vivo, Xanthium strumarium
Procedure, shortened: as §1

blackgrass = experiment: Test B pre/postemergence blackgrass; format: in vivo, Alopecurus myosuroides
Procedure, shortened: as §1

soybean = experiment: Test B pre/postemergence soybean; format: in vivo, Glycine max
Procedure, shortened: as §1

corn = experiment: Test B pre/postemergence corn; format: in vivo, Zea mays
Procedure, shortened: as §1

surinam grass = experiment: Test B pre/postemergence surinam grass; format: in vivo, Brachiaria decumbens
Procedure, shortened: as §1

pigweed = experiment: Test B pre/postemergence pigweed; format: in vivo, Amaranthus retroflexus
Procedure, shortened: as §1

wheat = experiment: Test B pre/postemergence wheat; format: in vivo, Triticum aestivum
Procedure, shortened: as §1

morningglory = experiment: Test B pre/postemergence morningglory; format: in vivo, Ipomoea hederacea
Procedure, shortened: as §1

purple nutsedge = experiment: Test B pre/postemergence purple nutsedge; format: in vivo, Cyperus rotundus
Procedure, shortened: as §1

[1] = Postemergence, Rate 62 g/ha, scale 0 to 10, 0 is no effect, 10 is complete control
[2] = Postemergence, Rate 125 g/ha, scale of 0 to 10 where 0 is no effect and 10 is complete control
[3] = Postemergence, Rate 250 g/ha, scale of 0 to 10, 0 is no effect, 10 is complete control
[4] = Postemergence, Rate 500 g/ha, scale of 0 to 10 where 0 is no effect and 10 is complete control
[5] = Preemergence, Rate 62 g/ha, scale 0 to 10 (0 no effect, 10 complete control)
[6] = Preemergence, Rate 125 g/ha, scale of 0 to 10 where 0 is no effect and 10 is complete control
[7] = Preemergence, Rate 500 g/ha, scale of 0 to 10 where 0 is no effect and 10 is complete control
[8] = Preemergence, Rate 250 g/ha, scale 0 to 10 (0 no effect, 10 complete control)

CCC(C)n1c(=O)on(C(=O)N(c2ccccc2)C(C)C)c1=O (stereo not drawn) [Compound 611]
Plant response rating, Wild oats (wild oat; [1]): 0
Plant response rating, Wild oats (wild oat; [2]): 2
Wild oats plant response rating (wild oat; [3]): 4
Plant response rating, Wild oats (wild oat; [4]): 7
Wild oats plant response rating (wild oat; [5]): 5
Wild oats plant response rating (wild oat; [6]): 7
Plant response rating, Wild oats (wild oat; [7]): 8
Plant response rating, Velvetleaf (velvetleaf; [1]): 0
Plant response rating, Velvetleaf (velvetleaf; [2]): 3
Velvetleaf plant response rating (velvetleaf; [3]): 5
Plant response rating, Velvetleaf (velvetleaf; [4]): 5
Velvetleaf plant response rating (velvetleaf; [5]): 6
Velvetleaf plant response rating (velvetleaf; [6]): 6
Plant response rating, Velvetleaf (velvetleaf; [7]): 8
Bedstraw plant response rating (bedstraw; [3]): 6
Plant response rating, Bedstraw (bedstraw; [4]): 9
Bedstraw plant response rating (bedstraw; [5]): 1
Bedstraw plant response rating (bedstraw; [6]): 1
Bedstraw plant response rating (bedstraw; [7]): 10
Plant response rating, Crabgrass (crabgrass; [1]): 8
Plant response rating, Crabgrass (crabgrass; [2]): 8
Crabgrass plant response rating (crabgrass; [3]): 9
Plant response rating, Crabgrass (crabgrass; [4]): 9
Crabgrass plant response rating (crabgrass; [5]): 9
Crabgrass plant response rating (crabgrass; [6]): 10
Plant response rating, Crabgrass (crabgrass; [7]): 10
Plant response rating, Rape (rape; [1]): 0
Plant response rating, Rape (rape; [2]): 0
Rape plant response rating (rape; [3]): 2
Plant response rating, Rape (rape; [4]): 3
Rape plant response rating (rape; [5]): 3
Rape plant response rating (rape; [6]): 3
Plant response rating, Rape (rape; [7]): 10
Plant response rating, Giant foxtail (giant foxtail; [1]): 8
Plant response rating, Giant foxtail (giant foxtail; [2]): 8
Giant foxtail plant response rating (giant foxtail; [3]): 9
Plant response rating, Giant foxtail (giant foxtail; [4]): 9
Giant foxtail plant response rating (giant foxtail; [5]): 10
Giant foxtail plant response rating (giant foxtail; [6]): 10
Plant response rating, Giant foxtail (giant foxtail; [7]): 10
Plant response rating, Cocklebur (cocklebur; [1]): 0
Plant response rating, Cocklebur (cocklebur; [2]): 2
Cocklebur plant response rating (cocklebur; [3]): 2
Plant response rating, Cocklebur (cocklebur; [4]): 3
Cocklebur plant response rating (cocklebur; [5]): 0
Cocklebur plant response rating (cocklebur; [6]): 0
Cocklebur plant response rating (0 to 10 scale) (cocklebur; Preemergence, Rate 250 g/ha): 0
Plant response rating, Cocklebur (cocklebur; [7]): 1
Plant response rating, Blackgrass (blackgrass; [1]): 7
Plant response rating, Blackgrass (blackgrass; [2]): 9
Blackgrass plant response rating (blackgrass; [3]): 9
Plant response rating, Blackgrass (blackgrass; [4]): 9
Blackgrass plant response rating (blackgrass; [5]): 9
Blackgrass plant response rating (blackgrass; [6]): 9
Blackgrass plant response rating (0 to 10 scale) (blackgrass; Preemergence, Rate 250 g/ha): 10
Blackgrass plant response rating (blackgrass; [7]): 10
Plant response rating, Soybean (soybean; [1]): 5
Plant response rating, Soybean (soybean; [2]): 7
Soybean plant response rating (soybean; [3]): 8
Plant response rating, Soybean (soybean; [4]): 8
Soybean plant response rating (soybean; [5]): 2
Soybean plant response rating (soybean; [6]): 2
Plant response rating, Soybean (soybean; [7]): 7
Plant response rating, Corn (corn; [1]): 0
Plant response rating, Corn (corn; [2]): 0
Corn plant response rating (corn; [3]): 4
Plant response rating, Corn (corn; [4]): 6
Corn plant response rating (corn; [5]): 2
Corn plant response rating (corn; [6]): 3
Corn plant response rating (0 to 10 scale) (corn; Preemergence, Rate 250 g/ha): 9
Plant response rating, Corn (corn; [7]): 9
Plant response rating, B. signalgrass (surinam grass; [1]): 0
Plant response rating, B. signalgrass (surinam grass; [2]): 3
B. signalgrass plant response rating (surinam grass; [3]): 7
Plant response rating, B. signalgrass (surinam grass; [4]): 8
B. signalgrass plant response rating (surinam grass; [5]): 7
B. signalgrass plant response rating (surinam grass; [6]): 7
B. signalgrass plant response rating (0 to 10 scale, 0 is no effect, 10 is complete control) (surinam grass; Preemergence, Rate 250 g/ha): 10
B. signalgrass plant response rating (surinam grass; [7]): 10
Plant response rating, Redroot pigweed (pigweed; [1]): 0
Plant response rating, Redroot pigweed (pigweed; [2]): 2
Redroot pigweed plant response rating (pigweed; [3]): 3
Plant response rating, Redroot pigweed (pigweed; [4]): 8
Redroot pigweed plant response rating (pigweed; [5]): 6
Redroot pigweed plant response rating (pigweed; [6]): 8
Plant response rating, Redroot pigweed (pigweed; [7]): 10
Plant response rating, Wheat (wheat; [1]): 0
Plant response rating, Wheat (wheat; [2]): 0
Wheat plant response rating (wheat; [3]): 2
Plant response rating, Wheat (wheat; [4]): 8
Wheat plant response rating (wheat; [5]): 1
Wheat plant response rating (wheat; [6]): 3
Plant response rating, Wheat (wheat; [7]): 7
Plant response rating, Morningglory (morningglory; [1]): 7
Plant response rating, Morningglory (morningglory; [2]): 8
Morningglory plant response rating (morningglory; [3]): 8
Plant response rating, Morningglory (morningglory; [4]): 8
Morningglory plant response rating (morningglory; [5]): 0
Morningglory plant response rating (morningglory; [6]): 0
Plant response rating, Morningglory (morningglory; [7]): 6
Plant response rating, Nutsedge (purple nutsedge; [1]): 0
Plant response rating, Nutsedge (purple nutsedge; [2]): 0
Nutsedge plant response rating (purple nutsedge; [3]): 3
Plant response rating, Nutsedge (purple nutsedge; [4]): 3
Nutsedge plant response rating (purple nutsedge; [5]): 0
Nutsedge plant response rating (purple nutsedge; [6]): 0
Plant response rating, Nutsedge (purple nutsedge; [7]): 2

CC(C)N(C(=O)n1oc(=O)n(CSC#N)c1=O)c1ccc(F)cc1 [Compound 618]
Plant response rating, Wild oats (wild oat; [1]): 0
Plant response rating, Wild oats (wild oat; [2]): 0
Wild oats plant response rating (wild oat; [3]): 0
Wild oats plant response rating (wild oat; [5]): 0
Wild oats plant response rating (wild oat; [6]): 0
Plant response rating, Wild oats (wild oat; [8]): 0
Plant response rating, Wild oats (wild oat; [7]): 0
Plant response rating, Velvetleaf (velvetleaf; [1]): 0
Plant response rating, Velvetleaf (velvetleaf; [2]): 0
Velvetleaf plant response rating (velvetleaf; [3]): 0
Velvetleaf plant response rating (velvetleaf; [5]): 0
Velvetleaf plant response rating (velvetleaf; [6]): 0
Plant response rating, Velvetleaf (velvetleaf; [8]): 0
Plant response rating, Velvetleaf (velvetleaf; [7]): 0
Bedstraw plant response rating (bedstraw; [5]): 0
Bedstraw plant response rating (bedstraw; [6]): 0
Plant response rating, Bedstraw (bedstraw; [8]): 0
Bedstraw plant response rating (bedstraw; [7]): 0
Plant response rating, Crabgrass (crabgrass; [1]): 0
Plant response rating, Crabgrass (crabgrass; [2]): 0
Crabgrass plant response rating (crabgrass; [3]): 0
Plant response rating, Crabgrass (crabgrass; [4]): 0
Crabgrass plant response rating (crabgrass; [5]): 0
Crabgrass plant response rating (crabgrass; [6]): 0
Plant response rating, Crabgrass (crabgrass; [8]): 0
Plant response rating, Crabgrass (crabgrass; [7]): 2
Plant response rating, Rape (rape; [1]): 0
Plant response rating, Rape (rape; [2]): 0
Rape plant response rating (rape; [3]): 0
Plant response rating, Rape (rape; [4]): 0
Rape plant response rating (rape; [5]): 0
Rape plant response rating (rape; [6]): 0
Plant response rating, Rape (rape; [8]): 0
Plant response rating, Rape (rape; [7]): 0
Plant response rating, Giant foxtail (giant foxtail; [1]): 0
Plant response rating, Giant foxtail (giant foxtail; [2]): 0
Giant foxtail plant response rating (giant foxtail; [3]): 0
Plant response rating, Giant foxtail (giant foxtail; [4]): 0
Giant foxtail plant response rating (giant foxtail; [5]): 2
Giant foxtail plant response rating (giant foxtail; [6]): 2
Plant response rating, Giant foxtail (giant foxtail; [8]): 2
Plant response rating, Giant foxtail (giant foxtail; [7]): 0
Plant response rating, Cocklebur (cocklebur; [1]): 0
Cocklebur plant response rating (cocklebur; [3]): 0
Plant response rating, Cocklebur (cocklebur; [4]): 0
Cocklebur plant response rating (cocklebur; [5]): 0
Cocklebur plant response rating (cocklebur; [6]): 0
Plant response rating, Cocklebur (cocklebur; [7]): 0
Plant response rating, Blackgrass (blackgrass; [1]): 0
Plant response rating, Blackgrass (blackgrass; [2]): 0
Blackgrass plant response rating (blackgrass; [3]): 0
Plant response rating, Blackgrass (blackgrass; [4]): 0
Blackgrass plant response rating (blackgrass; [5]): 0
Blackgrass plant response rating (blackgrass; [6]): 0
Plant response rating, Blackgrass (blackgrass; [8]): 0
Blackgrass plant response rating (blackgrass; [7]): 0
Plant response rating, Soybean (soybean; [1]): 0
Plant response rating, Soybean (soybean; [2]): 0
Soybean plant response rating (soybean; [3]): 6
Soybean plant response rating (soybean; [5]): 0
Soybean plant response rating (soybean; [6]): 0
Plant response rating, Soybean (soybean; [8]): 0
Plant response rating, Soybean (soybean; [7]): 0
Plant response rating, Corn (corn; [1]): 0
Plant response rating, Corn (corn; [2]): 0
Corn plant response rating (corn; [3]): 0
Plant response rating, Corn (corn; [4]): 0
Corn plant response rating (corn; [5]): 0
Corn plant response rating (corn; [6]): 0
Plant response rating, Corn (corn; [8]): 0
Plant response rating, Corn (corn; [7]): 0
Plant response rating, B. signalgrass (surinam grass; [1]): 0
Plant response rating, B. signalgrass (surinam grass; [2]): 0
B. signalgrass plant response rating (surinam grass; [3]): 0
Plant response rating, B. signalgrass (surinam grass; [4]): 0
B. signalgrass plant response rating (surinam grass; [5]): 0
B. signalgrass plant response rating (surinam grass; [6]): 0
Plant response rating, B. signalgrass (surinam grass; [8]): 0
B. signalgrass plant response rating (surinam grass; [7]): 0
Plant response rating, Redroot pigweed (pigweed; [1]): 0
Plant response rating, Redroot pigweed (pigweed; [2]): 0
Redroot pigweed plant response rating (pigweed; [3]): 0
Redroot pigweed plant response rating (pigweed; [5]): 0
Redroot pigweed plant response rating (pigweed; [6]): 0
Plant response rating, Redroot pigweed (pigweed; [8]): 0
Plant response rating, Redroot pigweed (pigweed; [7]): 0
Plant response rating, Wheat (wheat; [1]): 0
Plant response rating, Wheat (wheat; [2]): 0
Wheat plant response rating (wheat; [3]): 0
Wheat plant response rating (wheat; [5]): 0
Wheat plant response rating (wheat; [6]): 0
Plant response rating, Wheat (wheat; [8]): 0
Plant response rating, Wheat (wheat; [7]): 0
Plant response rating, Morningglory (morningglory; [1]): 0
Plant response rating, Morningglory (morningglory; [2]): 0
Morningglory plant response rating (morningglory; [3]): 0
Plant response rating, Morningglory (morningglory; [4]): 0
Morningglory plant response rating (morningglory; [5]): 0
Morningglory plant response rating (morningglory; [6]): 0
Plant response rating, Morningglory (morningglory; [8]): 0
Plant response rating, Morningglory (morningglory; [7]): 0
Plant response rating, Nutsedge (purple nutsedge; [1]): 0
Plant response rating, Nutsedge (purple nutsedge; [2]): 0
Nutsedge plant response rating (purple nutsedge; [3]): 0
Nutsedge plant response rating (purple nutsedge; [6]): 0
Plant response rating, Nutsedge (purple nutsedge; [7]): 0
